According to patent publication US8738114B2, “Systems and methods for measuring and modeling in vivo manganese ion transport in a subject” (Celtrast LLC, priority 2009, dated 2014):

Biological target: NCX (Mus musculus, UniProt P70414)
Test: In vivo MEMRI Mn^2+ efflux study with NCX inhibition by SEA0400 (dose dependent groups), pharmacokinetic Models 1-3
Settings: for Mn^2+ efflux rate following inhibition of the NCX, % of the initial, pre-SEA0400 administration, rate: Model 2 prediction, maximum inhibition
[1] = Model 1, 10 mg/kg SEA0400 i.p. 1 h post-190 nmoles/g BW MnCl2
[2] = Model 1, 20 mg/kg SEA0400 i.p. 1 h post-190 nmoles/g BW MnCl2
[3] = Model 1, 34 mg/kg SEA0400 i.p. 1 h post-190 nmoles/g BW MnCl2
[4] = Model 1, 50 mg/kg SEA0400 i.p. 1 h post-190 nmoles/g BW MnCl2
[5] = Model 2, 10 mg/kg SEA0400 i.p. 1 h post-190 nmoles/g BW MnCl2
[6] = Model 2, 20 mg/kg SEA0400 i.p. 1 h post-190 nmoles/g BW MnCl2
[7] = Model 2, 34 mg/kg SEA0400 i.p. 1 h post-190 nmoles/g BW MnCl2
[8] = Model 2, 50 mg/kg SEA0400 i.p. 1 h post-190 nmoles/g BW MnCl2
[9] = Model 3, 10 mg/kg SEA0400 i.p. 1 h post-190 nmoles/g BW MnCl2
[10] = Model 3, 20 mg/kg SEA0400 i.p. 1 h post-190 nmoles/g BW MnCl2
[11] = Model 3, 34 mg/kg SEA0400 i.p. 1 h post-190 nmoles/g BW MnCl2
[12] = Model 3, 50 mg/kg SEA0400 i.p. 1 h post-190 nmoles/g BW MnCl2

Protocol: The mice were randomized into three groups for efflux studies: 1) MnCl2 dose dependent (65±0.2, 119±2, 190±3 (Control) and 283±6 nmoles/g body weight MnCl2, n=40 mice) 2) SEA0400 dose dependent (190±1 nmoles/g BW MnCl2 infusion, followed 1 hour later with an i.p. injection of 10±0.2, 20±0.2, 34±0.8 and 50±0.2 mg/kg SEA0400, n=30) 3) Myocardial infarction (MI, 190±0.1 nmoles/g BW MnCl2, n=9)
In order to model the drug pharmacokinetics of SEA0400, and therefore the Mn^2+ transport mechanisms, an equation for the drug plasma concentration (Cp) was used (Eq. [2]), commonly applied to pharmaceutical modeling:
In Eq. [2] F is the fraction of drug absorbed, Vp is the apparent volume of distribution of the drug and D is the drug dose administered. The rate parameters, kel and kabs represent the drug elimination and absorption rates respectively.
The form for the Mn^2+ transfer rate parameter k21 was given by Eq. [3], under the assumption that k21 decreases linearly with increasing SEA0400 plasma concentration, Cp, as in Eq. [2]:
Parameter k21,initial is defined as the pre-pharmaceutical administration transfer parameter, k21(t<1 h). […] All the transfer rate and pharmaceutical parameters were therefore time-independent with the exception of k0 and k21 following SEA0400 administration.
The pharmaceutical absorption and elimination half-live (t1/2abs and t1/2el respectively) are given in Eq. [4] and Eq. [5].
Solutions to the ODEs were acquired using simultaneous 4th Order Runge-Kutta numerical methods in Matlab (Nantick, Mass.). Temporal in vivo cardiac Mn^2+ content data and ex vivo blood Mn^2+ content data were fit simultaneously to acquire least square fits for the first order rate parameters, kab. Least square fits of the pharmaceutical parameters, kabs and kel were also obtained using the SEA0400 groups, assuming that kab was unchanged from the control 190 nmoles/g group. […] The only constraint made by the least square fitting technique was that the transfer rate parameters and pharmaceutical parameters were ≧0.
Least square curve fitting techniques are inherently sensitive to the initial estimates of kab. For a given initial estimate of kab the fit may converge on solutions at local minima, which may not be the global minimum. In order to minimize potential errors caused by this effect, all the models employed a global search over a wide range in parameter space to find the initial estimates of kab corresponding to lowest fit residuals. To use the most realistic initial estimates for the fitting function, simultaneous solutions were obtained for the control 190 nmoles/g heart and 50 mg/kg SEA0400 heart efflux data, as well as the corresponding blood efflux data.
For the SEA0400 groups, a similar set of simultaneous ODEs was used, with k21 modeled as a function of time (Eq. [3]).
k21total and k2comp are the total transfer rates from compartment 2 to the blood, and from compartment 2 to compartments 3 and 4, respectively. These two parameters were estimated via the modeling technique.

SMILES: CCOc1ccc(Oc2ccc(OCc3cc(F)ccc3F)cc2)c(N)c1 [SEA0400]
- kabs drug absorption rate [1]: 671 h⁻¹
- kel drug elimination rate [1]: 1.7 h⁻¹
- kabs drug absorption rate [2]: 672 h⁻¹
- kel drug elimination rate [2]: 0.51 h⁻¹
- kabs drug absorption rate [3]: 680 h⁻¹
- kel drug elimination rate [3]: 0.49 h⁻¹
- kabs drug absorption rate [4]: 66 h⁻¹
- kel drug elimination rate [4]: 0.14 h⁻¹
- kabs drug absorption rate [5]: 68 h⁻¹
- kel drug elimination rate [5]: 1.6 h⁻¹
- kabs drug absorption rate [6]: 149 h⁻¹
- kel drug elimination rate [6]: 0.47 h⁻¹
- kabs drug absorption rate [7]: 115 h⁻¹
- kel drug elimination rate [7]: 0.41 h⁻¹
- kabs drug absorption rate [8]: 118 h⁻¹
- kel drug elimination rate [8]: 0.17 h⁻¹
- Mn^2+ efflux rate following inhibition of the NCX, % of the initial, pre-SEA0400 administration, rate (10 mg/kg SEA0400): 8.2%
- Mn^2+ efflux rate following inhibition of the NCX, % of the initial, pre-SEA0400 administration, rate (20 mg/kg SEA0400): 1.8%
- Mn^2+ efflux rate following inhibition of the NCX, % of the initial, pre-SEA0400 administration, rate (35 mg/kg SEA0400): 1.6%
- Mn^2+ efflux rate following inhibition of the NCX, % of the initial, pre-SEA0400 administration, rate (50 mg/kg SEA0400): 1.0%
- kabs drug absorption rate [9]: 85 h⁻¹
- kel drug elimination rate [9]: 1.1 h⁻¹
- kabs drug absorption rate [10]: 118 h⁻¹
- kel drug elimination rate [10]: 0.44 h⁻¹
- kabs drug absorption rate [11]: 9.4 h⁻¹
- kel drug elimination rate [11]: 0.33 h⁻¹
- kabs drug absorption rate [12]: 149 h⁻¹
- kel drug elimination rate [12]: 0.06 h⁻¹
- share of Mn^2+ efflux that occurs via the NCX (model prediction, highest dose of SEA0400): approximately 99%
